row,Structure (SMILES),melting point [°C]
1,CC(C)(Br)C(=O)NC12CC3CC(CC(C3)C1)C2,114 to 115
2,Brc1ccc2nsnc2c1,59 to 60
3,NS(=O)(=O)c1ccc(Sc2ccc(Cl)cc2)s1,133 to 136
4,Cc1ccccc1C1Cc2ccccc2C(O)O1 (stereo not drawn),100 to 109
5,OCc1ccccc1N1CCOCC1,54 to 57
6,CN(N)c1cnc2ccccc2n1,107 to 108
7,CCCCNC(=O)NCCCC,74 to 75
8,OCCN1CCN(c2nccc(C(F)(F)F)n2)CC1,70 to 71
9,Cc1ccc(C(N)=O)cn1,197
10,Cc1cc(C)n2cnnc2n1,165 to 167
11,CCCCSP(SCCCC)SCCCC,100
12,O=[N+]([O-])c1cc(/C=N\c2ccccc2)ccc1/C=N/c1ccccc1,133 to 134
13,ON=Cc1ccc2ccccc2c1,169
14,O=C(O)c1ccc(O)c([N+](=O)[O-])c1,230
15,Cc1ccc(I)cc1F,23
16,O=C(C1=NOC2C(=O)N(c3ccc(Br)cc3)C(=O)C12)c1ccc(Cl)cc1 (stereo not drawn),184
17,Cn1c(=O)cc(O)c2ccccc21,264 to 266
18,CC1(C)CCc2cc(S(=O)(=O)Cl)ccc2O1,92 to 94
19,COc1ccc2ccccc2c1CO,100 to 104
20,O=C(O)c1ccccc1-c1cccs1,92 to 95
21,Nc1cccc(COc2ccccc2)c1,45 to 47
22,Nc1cc(N)cc(C(F)(F)F)c1,88 to 89
23,CCOC(=O)C1=C(C)NC(=S)NC1c1ccco1 (stereo not drawn),174 to 175

row,Structure (SMILES),melting point [°C]
1,Cc1cc(C(=O)O)ccc1O,174 to 175
2,CC12CCC3c4ccc(OC(=O)N(CCCl)CCCl)cc4CCC3C1CCC2O (stereo not drawn),104
3,N#CC(C=O)c1ccc(Cl)cc1 (stereo not drawn),157
4,COc1cc(C=C2SC(=S)N(CNc3cccc([N+](=O)[O-])c3)C2=O)ccc1O,214 to 215
5,N#Cc1c(Cl)c(Cl)nc(Cl)c1Cl,139 to 142
6,O=[N+]([O-])c1ccc2c(c1)oc1ccccc12,182
7,O=C(C(C(=O)N1CCOCC1)c1ccccc1)N1CCOCC1,187
8,CC1CN1 (stereo not drawn),-65
9,N#Cc1ccncc1C#N,80
10,NCCCNCCN,10
11,O=[N+]([O-])c1ccc(Oc2ccc(Cl)cc2)nc1,93 to 96
12,O=c1nc2ccccc2nc(C(F)(F)F)c1NNc1ccc(Cl)cc1,151
13,OCCc1ccccc1,-27
14,CCCCCCCCCCCCCCC=O,24.5
15,Cn1ccc2c(C=O)cccc21,27 to 29
16,CCCC(=O)N(C)C,-40
17,BrCc1ccccc1Br,31
18,O=C(O)c1ccc(Cn2cnc3ccccc32)cc1,260 to 262
19,C=CCOCC=C,-6
20,Cn1nc2ccccc2c1C(=O)Cl,89 to 90
21,CC(=O)C1CCC2C3CC=C4CC(O)CCC4(C)C3CCC12C (stereo not drawn),193
22,O=C1OC(c2ccc(OP(=O)(O)O)cc2)(c2ccc(OP(=O)(O)O)cc2)c2ccccc21,198
23,O=C(OCC(O)CO)c1ccccc1Nc1ccnc2c(C(F)(F)F)cccc12 (stereo not drawn),180

row,Structure (SMILES),melting point [°C]
1,COc1ccc(C(=O)CCC(=O)O)cc1,149
2,CC1(C)C(C=NO)=[N+]([O-])C(C)(C)N1O,157 to 159
3,COc1ccc(-c2nnc(CCl)o2)cc1,91 to 95
4,Cc1cnc(N)c(Br)c1,72
5,COC(=O)C1Cc2c3c(c4c(c2CC1C(=O)OC)CC(C(=O)OC)C(C(=O)OC)C4)CC(C(=O)OC)C(C(=O)OC)C3 (stereo not drawn),261 to 263
6,FC(F)(F)c1cccc(-c2noc(-c3cc(-c4ccccc4)c(C(F)(F)F)s3)n2)c1,95 to 96
7,C/C(=N\Nc1ccc([N+](=O)[O-])cc1)c1nc2c(ccc3ccccc32)nc1C,271
8,CC1=CC(=O)NS(=O)(=O)O1,123
9,CC=Cc1ccc2c(c1)OCO2,8.2
10,O=C(Cl)c1ccc(-c2ncccn2)cc1,172 to 175
11,O=C(O)c1sc(-c2ccccc2)nc1-c1ccccc1,212 to 216
12,Cc1cc(C2CC2)nc(Nc2ccccc2)n1,75.9
13,O=C(OCc1ccccc1)N1c2ccccc2CC1CO (stereo not drawn),67 to 71
14,Fc1cc(Br)ccc1CBr,35
15,O=[N+]([O-])c1c(Cl)cc(Cl)cc1C(Cl)Cl,45
16,Nc1ncnc2c1cnn2CCO,218
17,Cc1ccc(C(=O)C=Cc2cccc([N+](=O)[O-])c2)cc1,134 to 137
18,CC1=CC1,-100
19,Cn1c(=O)c(C2=NNC(=O)C2=Cc2cccc(Cl)c2)c(O)c2ccccc21,265
20,NC(=O)c1ccccc1OCC(=O)O,221
21,O=C(O)C12CC3CC(CC(O)(C3)C1)C2,205
22,CC(C)(C)OC(=O)NC1(C(=O)O)CCCCC1,177
23,CC1=C(C(=O)OC(C)C)C(c2ccco2)NC(=S)N1 (stereo not drawn),191

row,Structure (SMILES),melting point [°C]
1,C1CN(SSN2CCOCC2)CCO1,124
2,O=C(O)/C=C/c1ccc(F)c(F)c1,193 to 198
3,CC12CCC(CC/C1=N\Nc1ccc([N+](=O)[O-])cc1[N+](=O)[O-])C2(C)C (stereo not drawn),232 to 233
4,O=C(C1=NOC2C(=O)N(c3cccc([N+](=O)[O-])c3)C(=O)C12)c1cccc2ccccc12 (stereo not drawn),191
5,CC(=O)OC(/C=C/c1ccccc1)=NNC(N)=O,174
6,COc1ccccc1C1CNCCN1 (stereo not drawn),80
7,COc1ccc(CCO)cc1,28 to 30
8,CC(=O)c1ccc(O)c(C)c1O,154
9,COC(=O)c1ccc2c(I)cn(C(=O)OC(C)(C)C)c2c1,154 to 155
10,c1n[nH]c2c1CCCC2,82
11,CC(C)NC(=O)CC#N,62 to 65
12,COC(=O)C(NC(=O)OCc1ccccc1)P(=O)(OC)OC (stereo not drawn),78
13,Cc1ccn2c(=O)c3ccccc3cc2c1,124
14,Cc1c(F)c(F)c(C)c(F)c1F,36
15,CC[N+](CC)(CC)S(=O)(=O)[N-]C(=O)OC,77
16,FC(F)(F)C(Cl)=C(Cl)C(F)(F)F,-67.3
17,CCCCCCCCCCCCC1CCC1=O (stereo not drawn),28 to 31
18,Cn1c(/C(C#N)=N/Nc2ccc(Cl)cc2Cl)nc2ccccc21,160
19,CC(=O)OC1C2COC(O2)C(OC(C)=O)C1OC(C)=O (stereo not drawn),110
20,NNC(=O)c1ccccc1-c1ccccc1,140 to 143
21,COc1cc(-c2n[nH]c(=S)n2/N=C/c2cc(Br)ccc2O)cc(OC)c1OC,230 to 231
22,CN1CCC(CN2c3ccccc3Sc3ccccc32)C1 (stereo not drawn),87
23,CN(C)C(C)(C)CO,19

row,Structure (SMILES),melting point [°C]
1,Cn1c(=O)c2[nH]c(=O)[nH]c2n(C)c1=O,412 to 415
2,O=S(=O)(Cl)c1cc(Br)ccc1Br,71
3,CC(C1CC1)C(O)(Cn1cncn1)c1ccc(Cl)cc1 (stereo not drawn),108
4,CSc1ncc(CO)n1Cc1ccccc1,109 to 111
5,CC(=O)NCCNc1cc(=O)oc2ccccc12,262
6,COc1ccc(N/N=C(/C(=O)c2cccc3ccccc23)S(=O)(=O)c2ccccc2)cc1,118
7,CC(CCC(=O)O)C1CCC2C3CCC4CC(O)CCC4(C)C3CC(O)C12C (stereo not drawn),177
8,CSc1nc(Cl)c(-c2ccccc2)c(Cl)n1,114
9,O=[N+]([O-])c1cccc(C=NNc2ccccc2)c1,123
10,Nc1ccc(C(=O)O)c(N)c1,140
11,O=C(C(=O)c1cc(Br)ccc1O)c1cc(Br)ccc1O,212
12,COc1ccc(CCl)cc1,24.5
13,NC(CCCC(F)(F)F)C(=O)O (stereo not drawn),272 to 274
14,Cc1cc(C)n(N=Cc2ccccc2)c(=O)c1C#N,194 to 195
15,CC=NO,45
16,CC(=O)N1c2cc3[nH]c(C)cc3cc2CC1C (stereo not drawn),275
17,COP(=O)(OC)OC,-46
18,C=C1C(=O)C23C(OC(C)=O)CC4C(C)(C)CCC(OC(C)=O)C4(C)C2C(OC(C)=O)CC1(OC(C)=O)C3OC(C)=O (stereo not drawn),280
19,Cc1cc2nc3[nH]c(=O)[nH]c(=O)c3nc2cc1C,300
20,COC(=O)c1cccc(C)c1O,29
21,CCC1(CC)C(=O)CCNC1=O,102
22,C1CCN(C2CCNCC2)C1,52 to 57
23,Nc1ncc(Cl)cc1Br,84

row,Structure (SMILES),melting point [°C]
1,COc1cc(F)c(OC)cc1F,121
2,COc1cc(C=CC(=O)O)cc(Br)c1O,256
3,O=C(O)CCOc1ccc(Cl)cc1,136 to 137
4,Cn1cc(Cl)c(C=O)n1,82
5,O=C(O)C=Cc1cccc(C=CC(=O)O)c1,280
6,CC(C)C(c1ccccc1)C(C)C,-24.5
7,CNC(=O)Oc1cccc(C(C)C)c1,73
8,Cc1cc(/C=C/c2ccccc2N)c([N+](=O)[O-])cc1[N+](=O)[O-],175
9,COc1ccc(CO)cc1O,136
10,N#CCC(=O)OCc1ccccc1,28
11,Oc1cccc(N2CCOCC2)c1,136 to 138
12,BrCc1ccccc1I,56
13,c1cc(-c2n[nH]c(-c3ccncc3)n2)ccn1,242
14,O=C(OC(=O)C(=Cc1ccccc1)Cc1ccccc1)C(=Cc1ccccc1)Cc1ccccc1,107 to 109
15,C/C(=C\C=C\c1ccccc1)C(=O)O,159
16,Cc1c(NC(=O)C(F)(F)C(F)(F)C(F)(F)C(F)(F)C(F)(F)C(F)(F)C(F)(F)C(F)(F)F)c(=O)n(-c2ccccc2)n1C,177
17,Cc1[nH]c2cc(C(F)(F)F)ccc2c1C(=O)N1CCCCC1,174 to 175
18,CC(=O)NCCNC(C)=O,174
